Target: T1, MKNK1 (MNK1) (Homo sapiens, UniProt Q9BUB5)
T1 construct: purchased Thermo Fisher Scientific (Life Technologies) SelectScreen
Test: SelectScreen Z'LYTE
Format: biochemical
Summary of the method: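 NU5455 was profiled across the SelectScreen Broad panel of kinase activity and binding assays. Z'LYTE reactions such as CSF1R ran at apparent Km ATP, while the Adapta CAMK1 assay used ATP listed as 10. Values are given as percent.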

T1 sequence (Q9BUB5 whole entry): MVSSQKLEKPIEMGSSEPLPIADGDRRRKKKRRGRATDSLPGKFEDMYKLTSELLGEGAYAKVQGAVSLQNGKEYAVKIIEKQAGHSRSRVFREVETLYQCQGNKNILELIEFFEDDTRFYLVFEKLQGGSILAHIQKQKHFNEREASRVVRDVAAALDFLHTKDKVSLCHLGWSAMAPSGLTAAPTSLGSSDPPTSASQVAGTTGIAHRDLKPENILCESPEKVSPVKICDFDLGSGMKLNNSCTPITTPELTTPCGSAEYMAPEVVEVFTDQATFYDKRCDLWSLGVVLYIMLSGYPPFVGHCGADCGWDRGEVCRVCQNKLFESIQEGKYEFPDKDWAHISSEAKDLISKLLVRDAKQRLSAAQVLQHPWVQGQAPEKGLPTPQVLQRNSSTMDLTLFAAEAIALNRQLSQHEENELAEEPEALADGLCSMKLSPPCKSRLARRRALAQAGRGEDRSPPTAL

Which inhibition at 1 µM does the source give for `CN(C(=O)CN1CCOCC1)c1ccc2sc3c(-c4cccc5c(=O)cc(N6CC7CCC(C6)O7)oc45)cccc3c2c1` [NU5455] here?
The inhibition at 1 µM was -10.7%.

From paper PMC6934184, “Selective DNA-PKcs inhibition extends the therapeutic index of localized radiotherapy and chemotherapy” (The Journal of Clinical Investigation, 2019)
